Columns and labels:
[1] = test system: metabolism of retinoic acid in human breast cancer cells; assay: Inhibition of retinoic acid (RA) metabolism (Example C.1); format: cell-based; conditions: MCF-7 human breast cancer cells, 3H-RA as substrate; concentration needed to reduce the amount of metabolites to 50% of the control
Procedure, shortened: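 Test compound (in 1% DMSO) added at several concentrations to MCF-7 cell suspensions fed ³H-RA, after RA induction of metabolism one day earlier. Scintillation counting of the separated polar metabolite fraction; IC50 = concentration giving 50% of control metabolite level.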

[2] = test system: Ovariectomized rats; assay: Vaginal keratinization test on ovariectomized rats (Example C.2); format: in vivo; conditions: estradiol undecylate induced keratinization, per os once daily on days 1-3, active dose = 50% of rats show complete suppression
Procedure, shortened: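 Value is the lowest oral dose (mg/kg) at which half of tested rats show complete suppression of estradiol undecylate-induced vaginal keratinization by histology. Ovariectomized rats received 100 μg/100 g estradiol undecylate s.c., then compound or PEG 200 vehicle p.o. daily for three days; sacrifice one day later.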

IC50 [1] [nM] | SMILES | LAD (lowest active dose) [2] [mg/kg]
11.7 | CC(C)C(c1ccc(NC(=O)c2ccc3c(c2)CCC(=O)N3)cc1)n1ccnc1 (racemic) [Compound 205] | >10.00
> 100 | C/C(=C\c1cc(=O)[nH]c2ccccc12)C(=O)Nc1ccc(C(C(C)C)n2ccnc2)cc1 (racemic) [Compound 603] | >10.00
3.37 | CC(C)C(c1ccc(NC(=O)c2ccc3nccnc3c2)cc1)n1ccnc1 (stereo not drawn) [Compound 214] | 20.00
1.59 | CCCOc1ccc(CC(=O)Nc2ccc(C(C(CC)CC)n3ccnc3)cc2)cc1 (racemic) [Compound 93] | 2.50
0.953 | CCC(CC)C(c1ccc(NC(=O)Cc2ccc(C)c(OC)c2)cc1)n1ccnc1 (racemic) [Compound 110] | >2.50
20 | C/C(=C\c1ccc(C)o1)C(=O)Nc1ccc(C(C(C)C)n2ccnc2)cc1 (racemic) [Compound 601] | 10.00
0.0285 | CCC(CC)C(c1ccc(NC(=O)Cc2ccc(OCc3ccncc3)cc2)cc1)n1ccnc1 (stereo not drawn) [Compound 127] | >2.50
1.95 | CCC(CC)C(c1ccc(NC(=O)C2CCN(C(=O)c3ccccc3)CC2)cc1)n1ccnc1 (racemic) [Compound 46] | >2.50
7.11 | CCC(CC)C(c1ccc(NC(=O)Cc2ccc(Oc3ccccc3)cc2)cc1)n1ccnc1 (racemic) [Compound 103] | >2.50
0.989 | CCC(CC)C(c1ccc(NC(=O)Cc2ccc(C)c(C)c2)cc1)n1ccnc1 (racemic) [Compound 112] | 2.50
0.0181 | CCOc1cc(CC(=O)Nc2ccc(C(C(CC)CC)n3ccnc3)cc2)ccc1OCc1ccccc1 (stereo not drawn) [Compound 128] | 5.00
> 1000 | C/C(=C\c1ccccc1)C(=O)Nc1ccc(C(C2COCOC2)n2ccnc2)cc1 (racemic) [Compound 477] | >10.00
2.21 | CCC(CC)C(c1ccc(NC(=O)Cc2ccc(OC(C)C)cc2)cc1)n1ccnc1 (racemic) [Compound 92] | 5.00
13.1 | CC(C)C(c1ccc(NC(=O)c2cccc3ccccc23)cc1)n1ccnc1 (stereo not drawn) [Compound 182] | 10.00
5.72 | COC(C(=O)Nc1ccc(C(C(C)C)n2ccnc2)cc1)c1ccccc1 (mixture of isomers) [Compound 670] | >2.50
3.01 | CC(C)C(c1ccc(NC(=O)C2=COc3ccccc3O2)cc1)n1ccnc1 (stereo not drawn) [Compound 234] | 10.00
2.24 | CCOc1ccc(CC(=O)Nc2ccc(C(C(CC)CC)n3ccnc3)cc2)cc1Cl (racemic) [Compound 118] | 2.50
52.5 | CC(C)C(c1ccc(NC(=O)C(=Cc2ccccc2)c2ccccc2)cc1)n1ccnc1 (stereo not drawn) [Compound 454] | >20.00
> 100 | CC(C)C(c1ccc(NC(=O)Cc2cccc(Cl)c2)cc1)n1ccnc1 (racemic) [Compound 652] | 10.00
0.907 | CCC(CC)C(c1ccc(NC(=O)CCCc2ccc(OC)c(OC)c2)cc1)n1ccnc1 (racemic) [Compound 52] | 2.50
5.14 | CC(C)C(c1ccc(NC(=O)C2CCc3ccccc3O2)cc1)n1ccnc1 (stereo not drawn) [Compound 217] | 10.00
> 100 | C/C(=C\c1ccccc1)C(=O)Nc1ccc(C(/C=C/C(C)C)n2ccnc2)cc1 (stereo not drawn) [Compound 479] | >10.00
1.04 | CCC(CC)C(c1ccc(NC(=O)c2ccccc2)cc1)n1ccnc1 (racemic) [Compound 22] | 2.50
2.36 | CC(C)C(c1ccc(NC(=O)c2cc3ccccc3s2)cc1)n1ccnc1 (racemic) [Compound 168] | 10.00
0.194 | CCOc1ccc(CC(=O)Nc2ccc(C(C(CC)CC)n3ccnc3)cc2)cc1C (racemic) [Compound 125] | 2.50
2.79 | CC(C)C(c1ccc(NC(=O)Cc2ccsc2)cc1)n1ccnc1 (racemic) [Compound 245] | 10.00
5.48 | CC(C)C(C(=O)Nc1ccc(C(C(C)C)n2ccnc2)cc1)c1ccccc1 (racemic) [Compound 658] | >10.00
4.16 | CC(C)C(c1ccc(NC(=O)c2cc3ccccc3o2)cc1)n1ccnc1 (racemic) [Compound 167] | 10.00
25.7 | C/C(=C\c1cccnc1)C(=O)Nc1ccc(C(C(C)C)n2ccnc2)cc1 (racemic) [Compound 575] | 20.00
2.24 | CCOc1ccc(C(=O)Nc2ccc(C(C(CC)CC)n3ccnc3)cc2)cc1 (racemic) [Compound 35] | 2.50

The next lines start with the molecule.

SMILES | IC50 [1] [nM] | LAD (lowest active dose) [2] [mg/kg]
CCC(CC)C(c1ccc(NC(=O)Cc2ccc(C)c(OC)c2)cc1)n1cncn1 (single isomer, unassigned) [Compound 782] | 1.26 | 2.50
CCC(CC)C(c1ccc(NC(=O)Cc2ccc(Cl)cc2)cc1)n1cncn1 (racemic) [Compound 66] | 0.356 | 2.50
CC(C)C(c1ccc(NC(=O)C2(C)CCCCC2)cc1)n1ccnc1 (racemic) [Compound 201] | 3.58 | >10.00
CCOC(=O)Nc1ccc(C(C(C)C)n2ccnc2)cc1 (stereo not drawn) [Compound 183] | 7.4 | >10.00
O=C(Nc1ccc(C(c2cccc(C(F)(F)F)c2)n2ccnc2)cc1)Nc1cccc(F)c1 (racemic) [Compound 729] | > 100 | 2.50
CCCC(CCC)C(c1ccc(NC(=O)Cc2ccc(OC)c(OC)c2)cc1)n1ccnc1 (racemic) [Compound 378] | 1.74 | 2.50
C/C(=C\c1ccc(C(F)(F)F)cc1)C(=O)Nc1ccc(C(C(C)C)n2cncn2)cc1 (stereo not drawn) [Compound 159] | > 100 | >10.00
CC(C)C(c1ccc(NC(=O)C(C)(C)Oc2ccc(Cl)cc2)cc1)n1ccnc1 (racemic) [Compound 222] | 3.32 | 20.00
C/C(=C\C1CCCCC1)C(=O)Nc1ccc(C(C(C)C)n2ccnc2)cc1 (stereo not drawn) [Compound 581] | > 100 | 20.00
CC(=O)Nc1ccc(C(c2cccc(F)c2)n2cncn2)cc1 (stereo not drawn) [Compound 615] | > 1000 | >20.00
CCC(CC)C(c1ccc(NC(=O)Cc2cccc(OC)c2)cc1)n1cncn1 (racemic) [Compound 70] | 0.295 | 5.00
CC(C)C(c1ccc(NC(=O)Cc2ccc3c(c2)OCCO3)cc1)n1ccnc1 (racemic) [Compound 255] | 6.24 | 5.00
CC(C)C(c1ccc(NC(=O)c2ccc3nnn(C)c3c2)cc1)n1ccnc1 (racemic) [Compound 184] | 5.15 | >10.00
CCCCC(c1ccc(NC(=O)/C(C)=C/c2ccccc2)cc1)(C(C)C)n1ccnc1 (racemic) [Compound 761] | > 100 | >5.00
O=C(Nc1ccc(C(c2ccccc2)n2ccnc2)cc1)c1cnccn1 (racemic) [Compound 424] | > 100 | >10.00
COCC(C)C(c1ccc(NC(=O)Cc2ccc(OC)c(OC)c2)cc1)n1ccnc1 (racemic) [Compound 404, (±)-(A)-3,4-dimethoxy-N-[4-[1-(1H-imidazol-1-yl)-3-methoxy-2-methylpropyl]phenyl]benzeneacetamide] | 1.35 | 5.00
C/C(=C\c1ccc2[nH]c(=O)ccc2c1)C(=O)Nc1ccc(C(C(C)C)n2ccnc2)cc1 (racemic) [Compound 598] | 23.9 | >10.00
COc1ccc(C(=O)Nc2ccc(C(C(C)C)n3ccnc3)cc2)cc1OC (racemic) [Compound 231] | 1.86 | >10.00
CCC(C(c1ccc(NC(=O)Cc2ccc(OC)c(OC)c2)cc1)n1ccnc1)N(C)C (single isomer, unassigned) [Compound 393] | 0.955 | 5.00
C/C(=C\c1ccccc1)C(=O)Nc1ccc(C(C(C)N(C)C)n2cncn2)cc1 (single isomer, unassigned) [Compound 332] | 1.5 | >2.50
CC(C(c1ccc(NC(=O)CN2CCN(C)CC2)cc1)n1ccnc1)N(C)C (single isomer, unassigned) [Compound 353] | 1.97 | >5.00
CC(C(c1ccc(NC(=O)Cc2ccc(Cl)cc2)cc1)n1ccnc1)N(C)C (single isomer, unassigned) [Compound 367] | 1.25 | 2.50
CCC(CC)C(c1ccc(NC(=O)Cc2ccc(OC)c(C)c2)cc1)n1cncn1 (racemic) [Compound 78] | 0.227 | 1.25
CC(=Cc1ccccc1)C(=O)Nc1ccc(C(C)(C)n2ccnc2)cc1 [Compound 753] | > 100 | >10.00
